{
  "source": "patent US20190008828A1",
  "about": "“METHODS FOR INHIBITING HUMAN IMMUNODEFICIENCY VIRUS (HIV) RELEASE FROM INFECTED CELLS” (priority 2015, published 2019)",
  "molecules": {"B1": {"name": "soluble human L-selectin (sCD62L) (receptor, UniProt P14151 39-332, looked up)", "chain": "WTYHYSEKPMNWQRARRFCRDNYTDLVAIQNKAEIEYLEKTLPFSRSYYWIGIRKIGGIWTWVGTNKSLTEEAENWGDGEPNNKKNKEDCVEIYIKRNKDAGKWNDDACHKLKAALCYTASCQPWSCSGHGECVEIINNYTCNCDVGYYGPQCQFVIQCEPLEAPELGTMDCTHPLGNFSFSSQCAFSCSEGTNLTGIEETTCGPFGNWSSPEPTCQVIQCEPLSAPDLGIMNCSHPLASFSFTSACTFICSEGTELIGKKKTICESSGIWSNPSPICQKLDKSFSMIKEGDYN", "notes": "also called soluble CD62L; recombinant CD62L"}, "B2": {"name": "PBJ: recombinant gp120, strain PBJ, SIV (protein)", "chain": "VQYVTVFYGIPAWRNATVPLFCATKNRDTWGTTQCLPDNGDYSELAINVTEAFDAWDNTVTEQAIEDVWNLFETSIKPCVKLTPLCITMRCNKSETDRWGLTGTPAPTTTQTTTTQASTTPTSPITAKVVNDSDPCIKINNCTGLEQEPMVSCKFNMTGLKRDKKREYNETWYSRDLVCEQNSNETDSKCYMNHCNTSVIQESCDKHYWDAIRFRYCAPPGYALLRCNDSNYSGFAPNCTKVVVSSCTRMMETQTSTWFGFNGTRAENRTYIYWHGRSNRTIISLNKYYNLTMRCRRPGNKTVLPVTIMSGLVFHSQPINERPKQAWCWFGGEWKKAIQEVKETLVKHPRYTGTNKTEQIKLTAPGGGDPEVTFMWTNCRGEFLYCKMNWFLNWVENIQNGSRWTSQNQKERQRRNYVPCHIRQIINTWHKVGKNVYLPPREGDLTCNSTVTSLIAEIDWINGNETNITMSAEVAELYRLELGDYKLVEITPIAFAPTSVKRYTTTGASRNKR"}, "B3": {"name": "recombinant PSGL-1 (ligand, UniProt Q14242 42-295, looked up)", "chain": "QATEYEYLDYDFLPETEPPEMLRNSTDTTPLTGPGTPESTTVEPAARRSTGLDAGGAVTELTTELANMGNLSTDSAAMEIQTTQPAATEAQTTQPVPTEAQTTPLAATEAQTTRLTATEAQTTPLAATEAQTTPPAATEAQTTQPTGLEAQTTAPAAMEAQTTAPAAMEAQTTPPAAMEAQTTQTTAMEAQTTAPEATEAQTTQPTATEAQTTPLAAMEALSTEPSATEALSMEPTTKRGLFIPFSVSSVTHKG", "notes": "also called P-selectin glycoprotein ligand-1"}},
  "key": {"HIV-1 viral release": {"system": "HIV-1 viral release", "test": "HIV-1 release assay, CD4+ T cells of HIV-1-infected individuals", "assay_type": "cell-based", "method": "PBMCs were obtained by leukapheresis and ficoll-hypaque centrifugation. CD4+ T cells were isolated using a cell separation system (StemCell Technologies). Cells were cultured with medium alone or with plate-bound anti-CD3 and soluble anti-CD28 antibody in the absence (DMSO) or presence of BB-94 in duplicate for 48 hours. The copy number of virion-associated HIV RNA in the above cell culture supernatants was determined using the […]-1 Test, Version 2.0 (Roche Diagnostics). The limit of detection for this system is 20 copies/ml."}, "HIV-1BaL [1]": {"system": "HIV-1BaL", "test": "Cell-cell transfer TZM-BL assay", "conditions": "TZM-BL co-incubated with HIV-1BaL-infected activated CD8-depleted PBMCs", "experimental": "For the cell-cell transfer assay, TZM-BL and TZM-62L cells were seeded in a 96-well, flat-bottom plate at 3,000 cells/well three days before the assay. Three days post infection with HIV-1BaL, activated CD8-depleted PBMCs with and without the presence of BB-94 were added to the wells at the concentration of 80×10^3, 40×10^3, 20×10^3, 10×10^3, and 5×10^3 cells/well with the volume of each well equalized using the CD8− PBMC media. Additional BB-94 was added to both the cells infected in the presence of BB-94 and a sample of cells that only received BB-94 treatment for the cell-cell transfer assay. All conditions were prepared in triplicate. The cell mixtures were incubated at 37° C. for three days, followed by lysis and measurement of the subsequent luciferase expression as per the manufacturer's instructions."}, "HIV-1BaL [2]": {"system": "HIV-1BaL", "test": "HIV-1BaL infection of activated CD8-depleted PBMCs", "assay_type": "cell-based", "conditions": "for reduction of HIV-1BaL infection of CD4+ T cells: 5 μM"}, "CD62L shedding": {"system": "CD62L shedding", "test": "CD62L shedding on activated CD8-depleted PBMCs", "assay_type": "cell-based, human", "conditions": "100 μM concentration; supernatant CD62L by ELISA"}, "[3]": {"biological_target": "T1, CD62L-Fc binding to immobilized gp120 (Homo sapiens, UniProt P14151)", "T1 construct": "Soluble gp120 and CD62L ELISA; Fc (IgG); purchased R&D Systems, Inc", "T1 sequence (P14151 39-332 limits assumed)": "B1 chain", "test": "Soluble gp120 and CD62L ELISA in presence of inhibitors", "conditions": "10 mM EDTA or 10 mg/ml carbohydrates", "method": "Fifty ng of gp120 proteins were immobilized in individual wells of a 96-well plate for 1 hour at room temperature in coating buffer (10 mM Tris [pH7.5] and 2 mM CaCl2), blocked for 1 hour using blocking buffer (10 mM Tris [pH7.5], 0.1% Tween20), and washed three times with the same buffer. […] The plate was washed five times and readout was colorimetric using a TMB substrate and analyzed on a SPECTRAMAX™ Plus 384 spectrophotometer (Molecular Devices)."}, "[4]": {"biological_target": "T2, soluble human L-selectin (sCD62L) (Homo sapiens, UniProt P14151)", "test": "SPR (Biacore 3000), gp120 injected over immobilized CD62L"}, "[5]": {"biological_target": "B1", "test": "SPR (Biacore 3000), CD62L ligand against CD62L"}, "[6]": {"biological_target": "T3, gp120 of strain PBJ (SIV) (SIV, UniProt P19503 23-535)", "T3 sequence": "B2 chain", "test": "SPR (Biacore 3000), gp120 injected over immobilized CD62L"}, "[7]": {"biological_target": "T2, soluble human L-selectin (sCD62L)", "assay_type": "binding", "conditions": "recombinant gp120 injected over immobilized CD62L, SPR; read-out: KD (nM), Solution KD for CD62L"}},
  "note": "Entries after “also recorded” stand apart in the source; their conditions may differ. Where two headings read alike, the source gives them in different places.",
  "data": [
    {"molecule": "CNC(=O)[C@H](Cc1ccccc1)NC(=O)[C@H](CC(C)C)[C@H](CSc1cccs1)C(=O)NO", "note": "[BB-94, Batimastat]", "values": [
      {"measurement": "inhibition of HIV-1 viral release among infected individuals", "setting": "HIV-1 viral release; paired DMSO and BB-94 treatment, viremic and aviremic individuals", "result": "30%-90%"},
      {"measurement": "reduction in the viral infection of TZM-BL cells compared to the control", "setting": "HIV-1BaL [1]", "result": 80, "unit": "%"},
      {"measurement": "reduction of HIV-1BaL infection of CD4+ T cells", "setting": "HIV-1BaL [2]; day 6, intracellular p24", "result": 60, "unit": "%"},
      {"measurement": "reduction of HIV-1BaL infection of CD4+ T cells", "setting": "HIV-1BaL [2]; day 11, intracellular p24", "result": 80, "unit": "%"}
    ]},
    {"molecule": "O=P(O)(O)C(Cl)(Cl)P(=O)(O)O", "note": "[DMDP, dichloromethylenediphosphonic acid]", "values": [
      {"measurement": "activation-induced viral release, virion-associated HIV-1 RNA in supernatant", "setting": "HIV-1 viral release; anti-CD3 stimulated CD4+ T cells from viremic and aviremic individuals, 48 hours", "result": "neither DMSO nor DMDP affected the viral release"},
      {"measurement": "HIV-1BaL infection", "setting": "HIV-1BaL [2]; 100 μM concentration, intracellular p24", "result": "showed no effect"},
      {"measurement": "CD62L shedding", "setting": "CD62L shedding", "result": "showed no effect"}
    ]},
    {"molecule": "O=C(O)CN(CCN(CC(=O)O)CC(=O)O)CC(=O)O", "note": "[EDTA]", "values": [
      {"measurement": "HIV-1BaL infection, intracellular viral capsid p24", "setting": "HIV-1BaL [2]; 5 mM EDTA", "result": "significantly reduced"}
    ]},
    {"molecule": "CC(=O)N[C@H]1C(O)O[C@H](CO)[C@@H](O)[C@@H]1O", "note": "(stereo partly drawn) [N-acetylglucosamine, N-acetyl-D-glucosamine]", "values": [
      {"measurement": "gp120-CD62L binding in the presence of inhibitor", "setting": "[3]", "result": "not"}
    ]},
    {"molecule": "OC[C@H]1O[C@@H](O[C@H]2[C@H](O)[C@@H](O)C(O)O[C@@H]2CO)[C@H](O)[C@@H](O)[C@H]1O", "note": "(some centres unmarked) [lactose]", "values": [
      {"measurement": "gp120-CD62L binding in the presence of inhibitor", "setting": "[3]", "result": "not"}
    ]},
    {"molecule": "Heparin", "values": [
      {"measurement": "gp120-CD62L binding in the presence of inhibitor", "setting": "[3]", "result": "competed with gp120 for receptor binding"},
      {"measurement": "gp120-CD62L binding in the presence of inhibitor", "setting": "[3]; listed as heparin", "result": "inhibited gp120 binding"}
    ]},
    {"molecule": "fucoidan", "values": [
      {"measurement": "gp120-CD62L binding in the presence of inhibitor", "setting": "[3]", "result": "inhibited gp120 binding; also recorded: competed with gp120 for receptor binding"}
    ]},
    {"molecule": "gp120 of strain 11530 (Clade A) (ligand)", "values": [
      {"measurement": "Kd", "setting": "[4]", "result": 35, "unit": "nM"}
    ]},
    {"molecule": "gp120 of strain CAP 88 (Clade C) (ligand)", "values": [
      {"measurement": "Kd", "setting": "[4]", "result": 71, "unit": "nM"}
    ]},
    {"molecule": "gp120 of strain R66M (Clade A/C) (ligand)", "values": [
      {"measurement": "Kd", "setting": "[4]", "result": 18, "unit": "nM"}
    ]},
    {"molecule": "gp120 of strain RV254 (Clade E) (ligand)", "values": [
      {"measurement": "Kd", "setting": "[4]", "result": 15, "unit": "nM"}
    ]},
    {"molecule": "gp120 of strain Z185 (Clade C) (ligand)", "values": [
      {"measurement": "Kd", "setting": "[4]", "result": 58, "unit": "nM"}
    ]},
    {"molecule": "recombinant gp120 from strain 20SF of Clade C (ligand)", "values": [
      {"measurement": "Kd", "setting": "[4]", "result": 53, "unit": "nM"}
    ]},
    {"molecule": "sialyl-Lewis X", "values": [
      {"measurement": "gp120-CD62L binding in the presence of inhibitor", "setting": "[3]", "result": "competed with gp120 for receptor binding"},
      {"measurement": "gp120-CD62L binding in the presence of inhibitor", "setting": "[3]; listed as Sialyl-Lewis", "result": "inhibited gp120 binding"}
    ]},
    {"molecule": "sialyllactose", "values": [
      {"measurement": "gp120-CD62L binding in the presence of inhibitor", "setting": "[3]", "result": "inhibited"}
    ]},
    {"molecule": "soluble mucin (PSM-II) (ligand)", "values": [
      {"measurement": "Kd", "setting": "[5]", "result": 3800, "unit": "nM"}
    ]},
    {"molecule": "B1", "values": [
      {"measurement": "Kd", "setting": "[6]", "result": 19, "unit": "nM"}
    ]},
    {"molecule": "B2", "values": [
      {"measurement": "Kd", "setting": "[7]", "result": "19 ± 2", "unit": "nM"}
    ]},
    {"molecule": "B3", "values": [
      {"measurement": "Kd", "setting": "[5]", "result": 50000, "unit": "nM"}
    ]}
  ]
}
